Measured values as given in the supplement of paper PMC4862054.

What was measured:
Assay in all cases: normalised viability (% of control), CellTiter-Blue; higher = more viable cells (about 100 = DMSO control)
Conditions in all cases: incubation time: 72 h
CAL-148 = system: CAL-148
Method: (§1)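 DSRT, CellTiter-Blue viability, 72 h incubation. Signal is normalised to DMSO and benzethonium chloride controls. Value is the normalised response at dose 6.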

CAL-51 = system: CAL-51
Method: as §1

CAL-85-1 = system: CAL-85-1
Method: as §1

DU-4475 = system: DU-4475
Method: as §1

HDQ-P1 = system: HDQ-P1
Method: as §1

MDA-MB-453 = system: MDA-MB-453
Method: as §1

Compound | normalised viability (CAL-148) | normalised viability (CAL-51) | normalised viability (CAL-85-1) | normalised viability (DU-4475) | normalised viability (HDQ-P1) | normalised viability (MDA-MB-453)
CC(C)C[C@@H](C(=O)N[C@H](C(=O)OC1CCCC1)c1ccccc1)[C@H](O)C(=O)NO [Tosedostat] (300 nM) | 78.1% | 86.5% | 92.8% | 51.1% | 81.5% | 51.8%
Cc1[nH]c2ccccc2c1CCNCc1ccc(/C=C/C(=O)NO)cc1 [Panobinostat] (30 nM) | 21.1% | 68.8% | 42.8% | 27.3% | 62.8% | 3.77%
